Source: PubChem BioAssay AID2060326 (Molecular Pharmacology Branch, DTP, NCI, 2025)
“And” between values parts separate entries of the source, which are not always exact repeats. Equal values may be shown once. Blank lines part the entries; values can stand above or below the compound they belong to.

System: MDA-MB-468 multi-cell spheroids, viability
Assay: Anticancer human tumor MDA-MB-468 cell line growth inhibition [IpAb];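 further: spheroids exposed to agents for seven days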;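 on viability, T/C: 100% = DMSO vehicle control viability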
Details: for viability, T/C: stronger effect = lower value
In short: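 Multi-cell spheroids of 60% tumour cells, 25% HUVEC and 15% MSC in ultra-low-attachment U-bottom wells, treated with agents combined with ipatasertib or abemaciclib. Half-log ranges top out near clinical Cmax, or 10 microM when Cmax is unknown.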

[1] = curve of first compound, second compound 0.1 µM
[2] = curve of first compound, second compound 0.316 µM
[3] = curve of first compound, second compound 1 µM
[4] = second compound 0.1 µM, first compound 0.0316 µM
[5] = second compound 0.1 µM, first compound 0.1 µM
[6] = second compound 0.1 µM, first compound 0.316 µM
[7] = second compound 0.1 µM, first compound 1 µM
[8] = second compound 0.1 µM, first compound 3.16 µM
[9] = second compound 0.1 µM, first compound 10 µM
[10] = second compound 0.316 µM, first compound 0.0316 µM
[11] = second compound 0.316 µM, first compound 0.1 µM
[12] = second compound 0.316 µM, first compound 0.316 µM
[13] = second compound 0.316 µM, first compound 1 µM
[14] = second compound 0.316 µM, first compound 3.16 µM
[15] = second compound 0.316 µM, first compound 10 µM
[16] = second compound 1 µM, first compound 0.0316 µM
[17] = second compound 1 µM, first compound 0.1 µM
[18] = second compound 1 µM, first compound 0.316 µM
[19] = second compound 1 µM, first compound 1 µM
[20] = second compound 1 µM, first compound 3.16 µM
[21] = second compound 1 µM, first compound 10 µM
[22] = curve of first compound, second compound 0.01 µM
[23] = curve of first compound, second compound 0.0316 µM
[24] = second compound 0.01 µM, first compound 0.00316 µM
[25] = second compound 0.01 µM, first compound 0.01 µM
[26] = second compound 0.01 µM, first compound 0.0316 µM
[27] = second compound 0.01 µM, first compound 0.1 µM
[28] = second compound 0.0316 µM, first compound 0.00316 µM
[29] = second compound 0.0316 µM, first compound 0.01 µM
[30] = second compound 0.0316 µM, first compound 0.0316 µM
[31] = second compound 0.0316 µM, first compound 0.1 µM
[32] = second compound 0.1 µM, first compound 0.00316 µM
[33] = second compound 0.1 µM, first compound 0.01 µM
[34] = second compound 0.316 µM, first compound 0.00316 µM
[35] = second compound 0.316 µM, first compound 0.01 µM
[36] = second compound 1 µM, first compound 0.00316 µM
[37] = second compound 1 µM, first compound 0.01 µM
[38] = second compound 0.01 µM, first compound 0.316 µM
[39] = second compound 0.01 µM, first compound 1 µM
[40] = second compound 0.0316 µM, first compound 0.316 µM
[41] = second compound 0.0316 µM, first compound 1 µM

Structure (SMILES): Cn1ncc(Cl)c1-c1cc(C(=O)NC(CN)Cc2cccc(F)c2)sc1Cl (stereo unspecified) + CC(C)NCC(C(=O)N1CCN(c2ncnc3c2C(C)CC3O)CC1)c1ccc(Cl)cc1
IC50 [1]: 366 nM
IC50 [2]: 133 nM
IC50 [3]: 52.2 nM
IC50 (curve of first compound, second compound 3.16 µM): < 31.6 nM
IC50 (curve of first compound, second compound 10 µM): < 31.6 nM
viability, T/C [4]: 71.1%
viability, T/C [5]: 64%
viability, T/C [6]: 54.8%
viability, T/C [7]: 30.3%
viability, T/C [8]: 16.1%
viability, T/C [9]: 0.14%
viability, T/C [10]: 57.7%
viability, T/C [11]: 51.5%
viability, T/C [12]: 44%
viability, T/C [13]: 31.8%
viability, T/C [14]: 16.6%
viability, T/C [15]: 0.13%
viability, T/C [16]: 50.5%
viability, T/C [17]: 50.9%
viability, T/C [18]: 36.3%
viability, T/C [19]: 28.4%
viability, T/C [20]: 12.6%
viability, T/C [21]: 0.12%
viability, T/C (second compound 3.16 µM, first compound 0.0316 µM): 31.8%
viability, T/C (second compound 3.16 µM, first compound 0.1 µM): 36.1%
viability, T/C (second compound 3.16 µM, first compound 0.316 µM): 31.5%
viability, T/C (second compound 3.16 µM, first compound 1 µM): 21.3%
viability, T/C (second compound 3.16 µM, first compound 3.16 µM): 10.8%
viability, T/C (second compound 3.16 µM, first compound 10 µM): 0.37%
viability, T/C (second compound 10 µM, first compound 0.0316 µM): 18.8%
viability, T/C (second compound 10 µM, first compound 0.1 µM): 20.4%
viability, T/C (second compound 10 µM, first compound 0.316 µM): 17.4%
viability, T/C (second compound 10 µM, first compound 1 µM): 17.4%
viability, T/C (second compound 10 µM, first compound 3.16 µM): 1.85%
viability, T/C (second compound 10 µM, first compound 10 µM): 0.18%

IC50 (curve of compound): > 10000 nM
Structure (SMILES): CCCS(=O)(=O)Nc1ccc(F)c(C(=O)c2c[nH]c3ncc(-c4ccc(Cl)cc4)cc23)c1F
viability, T/C (compound 0.0316 µM): 99.5% and 107%
viability, T/C (compound 0.1 µM): 99% and 91.6%
viability, T/C (compound 0.316 µM): 95% and 103%
viability, T/C (compound 1 µM): 100% and 109%
viability, T/C (compound 3.16 µM): 97.5% and 106%
viability, T/C (compound 10 µM): 66.3% and 75.8%

Structure (SMILES): CC(C)n1nc(-c2ccc3oc(N)nc3c2)c2c(N)ncnc21 + CCN1CCN(Cc2ccc(Nc3ncc(F)c(-c4cc(F)c5nc(C)n(C(C)C)c5c4)n3)nc2)CC1
IC50 [22]: 11.5 nM
IC50 [23]: 10.4 nM
IC50 [1]: 11.2 nM
IC50 [2]: 14.7 nM
IC50 [3]: 11.6 nM
viability, T/C (second compound 0.01 µM, first compound 0.000316 µM): 90.8%
viability, T/C (second compound 0.01 µM, first compound 0.001 µM): 90%
viability, T/C [24]: 69.7%
viability, T/C [25]: 57.6%
viability, T/C [26]: 24.9%
viability, T/C [27]: 10.6%
viability, T/C (second compound 0.0316 µM, first compound 0.000316 µM): 95.6%
viability, T/C (second compound 0.0316 µM, first compound 0.001 µM): 81.4%
viability, T/C [28]: 67%
viability, T/C [29]: 56%
viability, T/C [30]: 26.4%
viability, T/C [31]: 11.6%
viability, T/C (second compound 0.1 µM, first compound 0.000316 µM): 99%
viability, T/C (second compound 0.1 µM, first compound 0.001 µM): 78.3%
viability, T/C [32]: 75.8%
viability, T/C [33]: 54%
viability, T/C [4]: 26.9%
viability, T/C [5]: 10.2%
viability, T/C (second compound 0.316 µM, first compound 0.000316 µM): 91.4%
viability, T/C (second compound 0.316 µM, first compound 0.001 µM): 88.3%
viability, T/C [34]: 86%
viability, T/C [35]: 54.7%
viability, T/C [10]: 35%
viability, T/C [11]: 14.5%
viability, T/C (second compound 1 µM, first compound 0.000316 µM): 75.2%
viability, T/C (second compound 1 µM, first compound 0.001 µM): 81.3%
viability, T/C [36]: 64.2%
viability, T/C [37]: 53.2%
viability, T/C [16]: 34%
viability, T/C [17]: 20%

IC50 (curve of compound): 7490 nM and 8200 nM
Structure (SMILES): C=CC(=O)N1CCN(c2nc(=O)n(-c3c(C)ccnc3C(C)C)c3nc(-c4c(O)cccc4F)c(F)cc23)C(C)C1 (stereo unspecified)
viability, T/C (compound 0.0316 µM): 90.5% and 115%
viability, T/C (compound 0.1 µM): 103% and 119%
viability, T/C (compound 0.316 µM): 121% and 129%
viability, T/C (compound 1 µM): 105%
viability, T/C (compound 3.16 µM): 93.5% and 110%
viability, T/C (compound 10 µM): 35.1% and 37.1%

Structure (SMILES): C=CC(=O)N1CCN(c2nc(=O)n(-c3c(C)ccnc3C(C)C)c3nc(-c4c(O)cccc4F)c(F)cc23)C(C)C1 (stereo unspecified) + CCN1CCN(Cc2ccc(Nc3ncc(F)c(-c4cc(F)c5nc(C)n(C(C)C)c5c4)n3)nc2)CC1
IC50 [22]: 7470 nM
IC50 [23]: 7210 nM
IC50 [1]: 6740 nM
IC50 [2]: 6440 nM
IC50 [3]: 7150 nM
viability, T/C [26]: 109%
viability, T/C [27]: 117%
viability, T/C [38]: 110%
viability, T/C [39]: 113%
viability, T/C (second compound 0.01 µM, first compound 3.16 µM): 93.2%
viability, T/C (second compound 0.01 µM, first compound 10 µM): 35.1%
viability, T/C [30]: 98.6%
viability, T/C [31]: 90.9%
viability, T/C [40]: 108%
viability, T/C [41]: 91.7%
viability, T/C (second compound 0.0316 µM, first compound 3.16 µM): 79.8%
viability, T/C (second compound 0.0316 µM, first compound 10 µM): 38.3%
viability, T/C [4]: 101%
viability, T/C [5]: 106%
viability, T/C [6]: 100%
viability, T/C [7]: 110%
viability, T/C [8]: 97.6%
viability, T/C [9]: 24.8%
viability, T/C [10]: 103%
viability, T/C [11]: 108%
viability, T/C [12]: 116%
viability, T/C [13]: 103%
viability, T/C [14]: 83.7%
viability, T/C [15]: 29.2%
viability, T/C [16]: 84.2%
viability, T/C [17]: 73%
viability, T/C [18]: 81.8%
viability, T/C [19]: 82.7%
viability, T/C [20]: 74.7%
viability, T/C [21]: 39.6%

Structure (SMILES): COc1c(OCCCN2CCOCC2)ccc2c3n(c(=NC(=O)c4cnc(N)nc4)nc12)CCN3 + CCN1CCN(Cc2ccc(Nc3ncc(F)c(-c4cc(F)c5nc(C)n(C(C)C)c5c4)n3)nc2)CC1
IC50 [22]: 145 nM
IC50 [23]: 109 nM
IC50 [1]: 91.7 nM
IC50 [2]: 111 nM
IC50 [3]: 75.4 nM
viability, T/C [24]: 101%
viability, T/C [25]: 79.4%
viability, T/C [26]: 78.6%
viability, T/C [27]: 66.9%
viability, T/C [38]: 20.9%
viability, T/C [39]: 3.88%
viability, T/C [28]: 93%
viability, T/C [29]: 85.6%
viability, T/C [30]: 73.5%
viability, T/C [31]: 54.7%
viability, T/C [40]: 21.9%
viability, T/C [41]: 3.58%
viability, T/C [32]: 109%
viability, T/C [33]: 93.8%
viability, T/C [4]: 78.4%
viability, T/C [5]: 50.1%
viability, T/C [6]: 16.1%
viability, T/C [7]: 3.39%
viability, T/C [34]: 80.6%
viability, T/C [35]: 98.7%
viability, T/C [10]: 86.8%
viability, T/C [11]: 50.8%
viability, T/C [12]: 21.2%
viability, T/C [13]: 6.79%
viability, T/C [36]: 75%
viability, T/C [37]: 73.6%
viability, T/C [16]: 59.7%
viability, T/C [17]: 49%
viability, T/C [18]: 21%
viability, T/C [19]: 7.2%

IC50 (curve of compound): 10.4 nM and 12 nM
Structure (SMILES): CC(C)n1nc(-c2ccc3oc(N)nc3c2)c2c(N)ncnc21
viability, T/C (compound 0.000316 µM): 99% and 104%
viability, T/C (compound 0.001 µM): 84.2% and 89.2%
viability, T/C (compound 0.00316 µM): 74% and 80.1%
viability, T/C (compound 0.01 µM): 53.6% and 57.9%
viability, T/C (compound 0.0316 µM): 23.8% and 23.2%
viability, T/C (compound 0.1 µM): 9.32% and 10.4%
